The test system of one data set is Aspergillus flavus. Put plainly: Antifungal MIC by serial agar dilution method. The following applies: strain FA21436. The class given is cell-based. How it is done: (§1) The minimum inhibitory concentrations (MICs) of BU-4146T were determined against various bacteria and fungi by the serial agar dilution method. Nutrient agar (Eiken) was used for bacteria and Sabouraud dextrose agar (Difco) for fungi. The inoculum size was adjusted to 10^2 -10^4 cfu/ml for bacteria and 10^3 cfu/ml for fungi.
Background: In agar dilution the substance is mixed into plates at graded concentrations.

In the next data set the test system is Aspergillus fumigatus. Put plainly: Antifungal MIC by serial agar dilution method. It counts as cell-based. How it is done: as §1
Another data set concerns Blastomyces dermatidis. The data set can be described thus: Antifungal MIC by serial agar dilution method. The class given is cell-based. The following applies: strain IF08144. The method, then: as §1
The next data set concerns Candida albicans. The data set can be described thus: Antifungal MIC by serial agar dilution method. The class given is cell-based. The method, then: as §1
A further data set deals with Cryptococus neoformans. Put plainly: Antifungal MIC by serial agar dilution method. It counts as cell-based. The following applies: Cryptococcus neoformans. How it is done: as §1
Another data set deals with Fusarium moniliforme. The data set can be described thus: Antifungal MIC by serial agar dilution method. The following applies: Fusarium verticillioides; strain A2284. The class given is cell-based. The method, then:
as §1

The test system of the next data set is Mucor spinosus. The data set can be described thus: Antifungal MIC by serial agar dilution method. It counts as cell-based. The following applies: strain IF05317. The method, then: as §1
The subject of another data set is Petriellidium boydii. The data set can be described thus: Antifungal MIC by serial agar dilution method. It counts as cell-based. The following applies: Scedosporium boydii; strain IF08078. How it is done:
as §1

Another data set deals with Sporothrix schenckii. Put plainly: Antifungal MIC by serial agar dilution method. It counts as cell-based. The following applies: strain IF08158. The method, then: as §1
For data set [1], the system named is Trichophyton mentagrophytes. The data set can be described thus: Antifungal MIC by serial agar dilution method. The class given is cell-based. How it is done: as §1
The test system of another data set is Piricularia oryzae. The data set can be described thus: microbe, parasite or virus in culture. It counts as cell-based.
For another data set, the system named is Gram-negative bacteria. Put plainly: Antibacterial activity by serial agar dilution method. It counts as cell-based. The following applies: at 100 mcg/ml. The method, then: as §1
The next data set relates to Gram-positive bacteria. Described as above. It counts as cell-based. The following applies: at 100 mcg/ml. How it is done:
as §1

The subject of another data set is fungi. The data set can be described thus: Antifungal activity as a whole (serial agar dilution). It counts as cell-based. The following applies: versus streptimidone. The method, then:
as §1

Data set [2] relates to B16-F10 (murine melanoma) cells. The data set can be described thus: In vitro cytotoxicity. It counts as cell-based. The following applies: Mus musculus; B16-F10, 72 hours. The method, then:
(§2) B16-FIO, Moser and HCT-116 cells were harvested and implanted into wells of 96-well microtiter plate with test materials at the inoculum sizes of 3×10^4, 6×10^4 and 6×10^4 cell/ml, respectively. They were incubated at 37° C. in a humidified atmosphere of 5% carbon dioxide and 95% air for 72 hours. The cytotoxicity against the tumor cells was determined colorimetrically at 540 nm after staining viable cells.

Data set [3] deals with HCT-116 (human colon carcinoma) cells. The data set can be described thus: In vitro cytotoxicity. It counts as cell-based. The following applies: HCT-116, 72 hours. The method, then: as §2
The test system of data set [4] is Moser (human colorectal carcinoma) cells. Put plainly: In vitro cytotoxicity. The following applies: 72 hours. It counts as cell-based. The method, then: as §2
The test system of data set [5] is murine and human tumor cells (B16-F10, Moser, HCT-116). Put plainly: In vitro cytotoxicity, comparison over the tumor cell lines. The class given is cell-based. The following applies: versus mitomycin C; approximately. The method, then: as §2
The subject of data set [6] is DNA synthesis in B16-F10 melanoma cells. Put plainly: Inhibition of macromolecule synthesis in B16-F10 melanoma cells: DNA. The class given is cell-based, murine. The following applies: for IC50: Mus musculus, B16-F10, 3H-thymidine, 3.5 hours. How it is done: (§3) Inhibitory effects of BU-4146T on the macromolecule (DNA, RNA and protein) synthesis were determined in cultured B16-FlO melanoma cells. B16-FlO cells (10^5 cells/ml) were incubated with the compound at 37° C. for 3.5 hours (for DNA synthesis) or 4 hours (for RNA and protein synthesis). Labelled presursor, ^3 H-thymidine, ^14 C-uridine or ^3 H-leucine was added to the culture and further incubated for 30 minutes (for DNA) or 60 minutes (for RNA and protein). After washing with chilled 5% trichloroacetic acid solution, the radio activity incorporated into the acid-insoluble fraction of the tumor cells was determined by a liquid scintillation counter.

In data set [7] the test system is RNA synthesis in B16-F10 melanoma cells. The data set can be described thus: Inhibition of macromolecule synthesis in B16-F10 melanoma cells: RNA. The class given is cell-based, murine. The following applies: Mus musculus, 14C-uridine, 4 hours. How it is done: as §3
For data set [8], the system named is protein synthesis in B16-F10 melanoma cells. Put plainly: Inhibition of macromolecule synthesis in B16-F10 melanoma cells: protein. The class given is cell-based, murine. The following applies: Mus musculus, 3H-leucine, 4 hours. The method, then:
as §3

A further data set in a line: Solubility. It counts as physicochemical.
The nature of data set [9]: Cytotoxicity of hydrogenated derivative. It counts as cell-based.
Where [10] appears, read: Trichophyton mentagrophytes, strain D155, read-out: MIC.

Molecules are shown by their SMILES. In brackets after ≈: the same amount, converted by molar mass. Read-outs that look alike come from different tables or passages of the source.

For the compound `C/C(=C\C(C)C(=O)CC(O)CC1CC(=O)NC(=O)C1)C1OC(=O)/C=C/CC/C=C/C=C\C1C` (stereo not shown) [BU-4146T], the MIC with Aspergillus flavus is 3.1 µg/mL (≈ 6.77 µM); against Aspergillus fumigatus (strain IAM2034), 1.6 µg/mL (≈ 3.5 µM); with Aspergillus fumigatus (strain IAM2530), 0.8 µg/mL (≈ 1.75 µM); with Blastomyces dermatidis, 12.5 µg/mL (≈ 27.3 µM); in the data set on Candida albicans (strain A9540) it was over 100 µg/mL; in the data set with Candida albicans (strain IAM4888) it was over 100 µg/mL. Further, the MIC against Cryptococus neoformans (strain D49) came to 3.1 µg/mL (≈ 6.77 µM); with Cryptococus neoformans (strain IAM4514), 3.1 µg/mL (≈ 6.77 µM); against Fusarium moniliforme, 0.8 µg/mL (≈ 1.75 µM); in the data set with Mucor spinosus, 1.6 µg/mL (≈ 3.5 µM); against Petriellidium boydii, 3.1 µg/mL (≈ 6.77 µM); with Sporothrix schenckii it was 100 µg/mL (≈ 219 µM). Also, the values for the MIC (in data set [1] (setting [10]); in data set [1] (strain No. 4329); with Piricularia oryzae) were 100 µg/mL (≈ 219 µM), 100 µg/mL (≈ 219 µM) and 3.1 µg/mL (≈ 6.77 µM), respectively. For the same compound, the “inhibitory activity against Gram-negative bacteria” value in the data set with Gram-negative bacteria was “did not show inhibitory activity”. In addition, the “inhibitory activity against Gram-positive bacteria” value in the data set on Gram-positive bacteria is reported as “did not show inhibitory activity”. Besides, the “antifungal activity, times more potent than streptimidone” value with fungi is on record as 30-100 times. Also, the IC50 (commonly the midpoint of a concentration-inhibition curve) was determined as 0.03 µg/mL (≈ 0.0656 µM) in data set [2]; 0.014 µg/mL (≈ 0.0306 µM) in [3]; 0.047 µg/mL (≈ 0.103 µM) in [4]; 0.023 µg/mL (≈ 0.0503 µM) in [6]; 4.2 µg/mL (≈ 9.18 µM) in data set [7]; 0.024 µg/mL (≈ 0.0525 µM) in [8]. Further, the “IC50 values, times superior to those of mitomycin C” value in data set [5] is given as 20-60 times. In addition, the “potency in DNA and protein synthesis, times higher than in RNA synthesis” value in data set [6] (in terms of IC50, DNA and protein versus RNA) is about 200 times. Also, the solubility in n-hexane entry in the data set “Solubility” (n-hexane) is “practically insoluble”. Besides, the “solubility in acetonitrile, n-butanol, methanol, ethyl acetate, chloroform and dimethyl sulfoxide” value in the data set “Solubility” (organic solvents) was “readily soluble”. In addition, the solubility in water result in “Solubility” (water) is recorded as “practically insoluble”.
On to `CO[C@@]12[C@H](COC(N)=O)C3=C(C(=O)C(C)=C(N)C3=O)N1C[C@@H]1N[C@@H]12` [Mitomycin C, reference compound], for which the IC50 was determined as 1.6 µg/mL (≈ 4.79 µM) in data set [6], 11 µg/mL (≈ 32.9 µM) in data set [7] and 60 µg/mL (≈ 179 µM) in data set [8].
Consider `C=C/C(C)=C/[C@H](C)C(=O)C[C@H](O)CC1CC(=O)NC(=O)C1` [Streptimidone, reference compound], for which the MIC with Aspergillus flavus, against Aspergillus fumigatus (strain IAM2034), against Aspergillus fumigatus (strain IAM2530), with Blastomyces dermatidis, in the data set on Candida albicans (strain A9540) and in the data set on Candida albicans (strain IAM4888) was over 100 µg/mL each time. The MIC against Cryptococus neoformans (strain D49) was 50 µg/mL (≈ 170 µM); in the data set on Cryptococus neoformans (strain IAM4514), 50 µg/mL (≈ 170 µM); with Fusarium moniliforme, 50 µg/mL (≈ 170 µM); in the data set with Mucor spinosus it was over 100 µg/mL; in the data set on Petriellidium boydii, over 100 µg/mL; with Sporothrix schenckii, over 100 µg/mL. Also, the MIC (in data set [1] (setting [10]); in data set [1] (strain No. 4329); in the data set with Piricularia oryzae (read-out: MIC)) was over 100 µg/mL in each case.
Turning to `C/C(=C\C(C)C(=O)CC(O)CC1CC(=O)NC(=O)C1)C1OC(=O)CCCCCCCCC1C` (stereo not shown) [hexahydro-BU-4146T], the cytotoxicity result in data set [9] (in words) was “weak cytotoxicity”. Further, the “cytotoxicity, times weaker than that of BU-4146T” value in data set [9] (versus BU-4146T) is recorded as “about one hundred”.

These data come from US5002959A, “BU-4146T antibiotic” (Bristol-Myers Squibb Company, priority 1989, dated 1991).
